How the values were obtained:
[1] = molecular target: T1, human Y5 receptor (hNPY-5) (Homo sapiens, UniProt Q15761); experiment: Radioligand binding to membranes, cloned human Y5 receptor; conditions: cloned human NPY Y5 receptor, radioligand competition binding; Tables 1-3; read-out: Ki, nM hNPY-5
T1 construct: expressed in transfected cells; host or cells: mouse fibroblast LM(tk-) cells, e.g. L-hY5-7 (ATCC CRL-11995)
T1 sequence (Q15761 1-445): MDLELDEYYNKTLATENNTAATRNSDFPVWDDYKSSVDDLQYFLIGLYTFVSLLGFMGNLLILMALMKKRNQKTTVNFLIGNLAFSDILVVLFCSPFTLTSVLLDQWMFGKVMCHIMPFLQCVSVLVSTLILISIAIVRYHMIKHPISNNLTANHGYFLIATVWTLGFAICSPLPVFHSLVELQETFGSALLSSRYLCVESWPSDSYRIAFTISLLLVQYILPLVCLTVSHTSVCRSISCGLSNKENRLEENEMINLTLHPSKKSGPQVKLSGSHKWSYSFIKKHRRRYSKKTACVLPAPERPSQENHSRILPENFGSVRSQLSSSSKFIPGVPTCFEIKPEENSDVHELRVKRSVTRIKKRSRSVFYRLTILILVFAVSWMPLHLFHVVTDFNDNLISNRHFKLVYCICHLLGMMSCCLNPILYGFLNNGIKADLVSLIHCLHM
Method: (§1) Binding of the compounds of the present invention to human Y1, Y2, Y4, and Y5 receptors was evaluated using stably transfected 293 or LM(tk-) cells as described above. Stably transfected cell lines which may be used for binding assays include, for example, for the human Y1 receptor, 293-hY1-5 (deposited Jun. 4, 1996, under ATCC Accession No. CRL-12121), for the human Y2 receptor, 293-hY2-10 (deposited Jan. 27, 1994, under ATCC Accession No. CRL-11537), for the human Y4 receptor, L-hY4-3 (deposited Jan. 11, 1995, under ATCC Accession No. CRL-11779), and for human Y5 receptor, L-hY5-7 (deposited Nov. 15, 1995, under ATCC Accession No. CRL-11995). These cell lines were deposited with the American Type Culture Collection (ATCC), 10801 University Blvd., Manassas, Va. 20110-2209, U.S.A. under the provisions of the Budapest Treaty for the International Recognition of the Deposit of Microorganisms for the Purposes of Patent Procedure.
(§2) Membranes were harvested from COS-7 cells 48 hours after transient transfection. Adherent cells were washed twice in ice-cold phosphate buffered saline (138 mM NaCl, 8.1 mM Na2HPO4, 2.5 mM KCl, 1.2 mM KH2PO4, 0.9 mM CaCl2, 0.5 mM MgCl2, pH 7.4) and lysed by sonication in ice-cold sonication buffer (20 mM Tris-HCl, 5 mM EDTA, pH 7.7). Large particles and debris were cleared by low speed centrifugation (200×g, 5 min, 4° C.). Membranes were collected from the supernatant fraction by centrifugation (32,000×g, 18 min, 4° C.), washed with ice-cold hypotonic buffer, and collected again by centrifugation (32,000×g, 18 min, 4° C.). The final membrane pellet was resuspended by sonication into a small volume of ice-cold binding buffer (˜1 ml for every 5 plates: 10 mM NaCl, 20 mM HEPES, 0.22 mM KH2PO4, 1.26 mM CaCl2, 0.81 mM MgSO4, pH 7.4). Protein concentration was measured by the Bradford method (Bradford, 1976) using Bio-Rad Reagent, with bovine serum albumin as a standard. Membranes were held on ice for up to one hour and used fresh, or flash-frozen and stored in liquid nitrogen.
(§3) Membranes were prepared similarly from 293, LM(tk-), and NIH-3T3 cells. To prepare membranes from baculovirus infected cells, 2×10^7 Sf21 cells were grown in 150 mm tissue culture dishes and infected with a high-titer stock of hY5BB3. Cells were incubated for 2-4 days at 27° C., no CO2 before harvesting and membrane preparation as described above.
(§4) Membrane suspensions were diluted in binding buffer supplemented with 0.1% bovine serum albumin to yield an optimal membrane protein concentration so that ^125I-PYY (or alternative radioligand such as ^125I-NPY, ^125I-PYY3-36, or ^125I-[Leu^31Pro^34]PYY) bound by membranes in the assay was less than 10% of ^125I-PYY (or alternative radioligand) delivered to the sample (100,000 dpm/sample=0.08 nM for competition binding assays). ^125I-PYY (or alternative radioligand) and peptide competitors were also diluted to desired concentrations in supplemented binding buffer. Individual samples were then prepared in 96-well polypropylene microtiter plates by mixing 125I-PYY (25 μL) (or alternative radioligand), competing peptides or supplemented binding buffer (25 μL), and finally, membrane suspensions (200 μL). Samples were incubated in a 30° C. water bath with constant shaking for 120 min. Incubations were terminated by filtration over Whatman GF/C filters (pre-coated with 1% polyethyleneimine and air-dried before use), followed by washing with 5 mL of ice-cold binding buffer. Filter-trapped membranes were impregnated with MeltiLex solid scintillant (Wallac, Turku, Finland) and counted for ^125I in a Wallac Beta-Plate Reader. Alternatively, incubations were carried out in GF/C filter plates (pre-coated with 1% polyethyleneimine and air-dried before use), followed by vacuum filtration and three washes of 300 μL of ice-cold binding buffer. 50 μL of UltimaGold (Packard) scintillant were added and counted for ^125I in a Wallac MicroBeta Trilux. […]

[2] = molecular target: hNPY-1,2,4 (human Y1, Y2, Y4 receptors); experiment: Radioligand binding to membranes, cloned human Y1, Y2 and Y4 receptors; conditions: one bound given for all three
Method: as §1, §2, §3, §4

CS(=O)(=O)NCCCCNc1nc2c(s1)CCCc1ccc(F)cc1-2 [Example 5, 1-Aza-9-fluoro-4,5-dihydro-2-(4-(methane-sulfonylamino)-butyl)amino-3-thia-benzo[e]azulene]
Ki [1]: 19.8 nM
Ki [2]: > 10000 nM

O=S(=O)(NCCCCNc1nc2c(s1)CCCc1ccc(F)cc1-2)c1ccccc1F [Example 7, 1-Aza-9-fluoro-2-(4-(2-fluorophenyl)sulfonylamino)-butylamino-4,5-dihydro-3-thia-benzo[e]azulene]
Ki [1]: 23 nM
Ki [2]: > 10000 nM

CS(=O)(=O)NCCCCCNc1nc2c(s1)CCCc1ccc(F)cc1-2 [Example 10, 1-Aza-9-fluoro-4,5-dihydro-2-(5-(methylsulfonyl-amino)-pentyl)amino-3-thia-benzo [e]azulene]
Ki [1]: 2.4 nM
Ki [2]: > 10000 nM

O=S(=O)(NCCCCCNc1nc2c(s1)CCCc1ccc(F)cc1-2)c1ccc(F)cc1F [Example 12, 1-Aza-9-fluoro-4,5-dihydro-2-(5-(2,4-difluoro-phenyl)sulfonylamino)pentylamino-3-thia-benzo[e]-azulene]
Ki [1]: 6.1 nM
Ki [2]: > 1000 nM

CCN(CC)S(=O)(=O)NCCCCCNc1nc2c(s1)CCCc1ccc(F)cc1-2 [Example 14, 1-Aza-9-fluoro-4,5-dihydro-2-(5-(diethyl-aminosulfonyl-amino)pentyl)amino-3-thia-benzo[e]-azulene]
Ki [1]: 2.1 nM
Ki [2]: > 10000 nM

O=S(=O)(Cc1ccccc1)NCCCCCNc1nc2c(s1)CCCc1ccc(F)cc1-2 [Example 16, 1-Aza-2-(5-benzylsulfonylamino)pentylamino-9-fluoro-4,5-dihydro-3-thia-benzo[e]azulene]
Ki [1]: 4.7 nM
Ki [2]: > 10000 nM

O=S(=O)(NCCCCCNc1nc2c(s1)CCCc1ccc(F)cc1-2)c1ccc(F)c(F)c1 [Example 17, 1-Aza-2-(5-(3,4-difluorophenyl)sulfonylamino)-pentylamino-9-fluoro-4,5-dihydro-3-thia-benzo[e]-azulene]
Ki [1]: 11 nM
Ki [2]: > 10000 nM

COc1ccc(S(=O)(=O)NCCCCCNc2nc3c(s2)CCCc2ccc(F)cc2-3)cc1 [Example 18, 1-Aza-9-fluoro-4,5-dihydro-2-(5-(4-methoxyphenyl)-sulfonylamino)pentylamino-3-thia-benzo[e]azulene]
Ki [1]: 7.1 nM
Ki [2]: > 10000 nM

CCS(=O)(=O)NCCCCCNc1nc2c(s1)CCCc1ccc(F)cc1-2 [Example 21, 1-Aza-9-fluoro-2-(5-ethylsulfonylamino)pentylamino-4,5-dihydro-3-thia-benzo[e]azulene]
Ki [1]: 2.5 nM
Ki [2]: > 10000 nM

CCN(CC)S(=O)(=O)NCCCCNc1nc2c(s1)CCCc1ccc(F)cc1-2 [Example 22, 1-Aza-2-(4-diethylaminosulfonylamino)butylamino-9-fluoro-4,5-dihydro-3-thia-benzo[e]azulene]
Ki [1]: 2.9 nM
Ki [2]: > 10000 nM

Cc1noc(C)c1S(=O)(=O)NCCCCCNc1nc2c(s1)CCCc1ccc(F)cc1-2 [Example 24, 1-Aza-9-fluoro-4,5-dihydro-2-(5-(3,5-dimethyl-isoxazol-4-yl)sulfonylamino)pentylamino-3-thia-benzo[e]azulene]
Ki [1]: 3.5 nM
Ki [2]: > 10000 nM

COc1ccc(C)cc1S(=O)(=O)NCCCCC(=O)Nc1nc2c(s1)CCCc1ccc(F)cc1-2 [Example 49, N1-(9-Fluoro-5,6-dihydro-4H-benzo[6,7]cyclohepta-[d][1,3]-thiazol-2-yl)-5-[(2-methoxy-5-methylphenyl)-sulfonyl]-aminopentanamide]
Ki [1]: 2.9 nM
melting point: 70 to 75 °C

COc1ccc(C)cc1S(=O)(=O)N[C@H]1CC[C@H](CNc2nc3c(s2)CCOc2ccccc2-3)CC1 [Example 51, trans-1-Aza-4,5-dihydro-2-{4-(2-methoxy-5-methyl-phenyl)-sulfonylamino}cyclohexylmethylamino-6-oxa-3-thia-benzo[e]azulene]
Ki [1]: 8.3 nM
melting point: 220 to 224 °C

CS(=O)(=O)NCCOCCNc1nc2c(s1)CCCc1ccc(F)cc1-2 [Example 57, 1-Aza-9-fluoro-4,5-dihydro-2-{2-(2-methylsulfonyl-amino)ethoxy}ethylamino-3-thia-benzo[e]azulene]
Ki [1]: 66 nM
melting point: 159 to 162 °C

CCS(=O)(=O)N[C@H]1CC[C@H](CNc2nc3c(s2)CCOc2cc(OC)ccc2-3)CC1 [Example 60, trans-N2-(4-Ethylsulfonylamino)cyclohexylmethyl-8-methoxy-4,5-dihydro-benzo[2,3]oxepino[4,5-d][1,3]thiazol-2-amine]
Ki [1]: 31 nM
melting point: 170 to 172 °C

COc1ccc2c(c1)OCCc1sc(NC[C@H]3CC[C@H](NS(C)(=O)=O)CC3)nc1-2 [Example 61, trans-1-Aza-4,5-dihydro-8-methoxy-2-{4-methyl-sulfonyl-amino)cyclohexylmethylamino-6-oxa-3-thia-benzo [e]azulene]
Ki [1]: 162 nM
melting point: 65 to 70 °C

O=S(=O)(N[C@H]1CC[C@H](CNc2nc3c(s2)CCCc2ccc(F)cc2-3)CC1)c1cccnc1 [Example 62, trans-1-Aza-9-fluoro-4,5-dihydro-2-{4-(3-pyridyl)sulfonylamino}cyclohexylmethylamino-3-thia-benzo[e]azulene]
Ki [1]: 1.8 nM
melting point: 158 to 160 °C

CCS(=O)(=O)N[C@H]1CC[C@H](CNc2nc3c(s2)CCOc2ccc(OC)cc2-3)CC1 [Example 64, trans-N2-(4-Ethylsulfonylamino)cyclohexylmethyl-9-methoxy-4,5-dihydro-benzo[2,3]oxepino[4,5-d][1,3]thiazol-2-amine]
Ki [1]: 12.2 nM
melting point: 165 to 170 °C

COc1ccc2c(c1)CCCc1sc(N[C@H]3CC[C@H](CNS(C)(=O)=O)CC3)nc1-2 [Example 72, trans-1-Aza-4,5-dihydro-8-methoxy-2-(4-methyl-sulfonylamino-methyl)cyclohexylamino-3-thia-benzo[e]azulene]
Ki [1]: 22 nM
melting point: 224 to 225 °C

CCCN(C=O)C[C@H]1CC[C@H](Nc2nc3c(s2)CCOc2ccccc2-3)CC1 [Example 85, N-{[4-(4,5-Dihydrobenzo[2,3]oxepino[4,5-d][1,3]-thiazol-2-ylamino)cyclohexyl]methyl}-N-propylformamide]
Ki [1]: 150 nM
melting point: 53 to 55 °C

CS(=O)(=O)NCc1ccc(Nc2nc3c(s2)CCCc2ccc(F)cc2-3)cc1 [Example 90, N-{4-[(9-Fluoro-5,6-dihydro-4H-benzo[6,7]cyclohepta-[d][1,3]thiazol-2-yl)amino]benzyl}methanesulfonamide]
Ki [1]: 5.7 nM
melting point: 148 to 150 °C
